Patent US11471474B2, “Pharmaceutical or cosmetic composition for preventing or treating hair loss or promoting hair growth” (priority 2018, dated 2022)

Tested on: human hair dermal papilla cells (HHDPC)
Assay: MTT cytotoxicity test of cADPR in human hair dermal papilla cells
Format: cell-based
Conditions: cADPR in the concentration range according to the invention (0.01 to 2 ppm tested), 48 hours
Procedure: To confirm cytotoxicity of cADPR in human hair dermal papilla cells (HHDPC), MTT assay which is a representative method for measuring cytotoxicity and determines cytotoxicity by measuring mitochondrial reducing power by dehydrogenase action was conducted.
Human hair dermal papilla cells were cultured in an HDP kit medium (Human hair dermal papilla cell media kit) at 37° C. in a 5% CO2 incubator (manufactured by Thermo Fisher Scientific, USA).
The cultured cells were dispensed into a 24-well plate at a concentration of 3×10^4 cells/well. After 18 hours, the cADPR mixture solutions according to Preparation Examples 1-1 to 1-6 (0.01, 0.05, 0.1, 0.5, 1 and 2 ppm, respectively) were added to each well. Then, the cells were cultured in the 5% CO2 incubator at 37° C. for 48 hours. After 48 hours of the incubation, each well was washed once with PBS (phosphate buffered saline) solution, and added with 50 μl of 5 mg/mL MTT reagent (Sigma, USA) and 450 μl of fresh medium. The wells were incubated for 2.5 hours and then supernatants were removed.

N=c1c2ncn3c2ncn1[C@@H]1O[C@H](COP(=O)(O)OP(=O)(O)OC[C@H]2O[C@@H]3[C@H](O)[C@@H]2O)[C@@H](O)[C@H]1O [cADPR, Cyclic ADP Ribose] was tested, and the cytotoxicity was “no cytotoxicity was observed”.
